The values that follow come from article PMC11358156 (Nature Cardiovascular Research, 2024).

For one assay, the target named is T1, β-cardiac myosin (β-MHC) (Bos taurus, UniProt Q9BE39).
T1 construct: gene MYH7; motor domain (MD) in the pre-powerstroke state
Kind of assay: co-crystal structure at […] Å with aficamten and vanadate. It counts as binding.

Assay [1] concerns the target T2, fast skeletal myosin MYH1 (Oryctolagus cuniculus, UniProt A0A5F9CQ93).
T2 construct: with sarcomere proteins (actin, troponin, tropomyosin) of the myofibril
Kind of assay: myofibril ATPase assay. It counts as biochemical.

The structures appear in SMILES notation.

T2 sequence (P02602 2-192): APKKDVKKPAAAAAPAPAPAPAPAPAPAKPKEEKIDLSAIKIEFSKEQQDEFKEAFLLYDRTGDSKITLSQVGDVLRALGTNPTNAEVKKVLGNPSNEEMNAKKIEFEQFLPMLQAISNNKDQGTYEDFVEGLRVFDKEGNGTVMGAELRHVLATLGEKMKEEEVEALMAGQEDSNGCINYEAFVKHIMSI
T2 sequence (P02608 2-170, further chain): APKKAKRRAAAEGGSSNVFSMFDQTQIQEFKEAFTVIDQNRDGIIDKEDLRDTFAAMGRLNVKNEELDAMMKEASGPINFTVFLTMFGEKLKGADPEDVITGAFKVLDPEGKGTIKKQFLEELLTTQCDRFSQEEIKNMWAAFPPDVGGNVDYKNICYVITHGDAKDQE
T2 sequence (A0A5F9CQ93 entry or part of it): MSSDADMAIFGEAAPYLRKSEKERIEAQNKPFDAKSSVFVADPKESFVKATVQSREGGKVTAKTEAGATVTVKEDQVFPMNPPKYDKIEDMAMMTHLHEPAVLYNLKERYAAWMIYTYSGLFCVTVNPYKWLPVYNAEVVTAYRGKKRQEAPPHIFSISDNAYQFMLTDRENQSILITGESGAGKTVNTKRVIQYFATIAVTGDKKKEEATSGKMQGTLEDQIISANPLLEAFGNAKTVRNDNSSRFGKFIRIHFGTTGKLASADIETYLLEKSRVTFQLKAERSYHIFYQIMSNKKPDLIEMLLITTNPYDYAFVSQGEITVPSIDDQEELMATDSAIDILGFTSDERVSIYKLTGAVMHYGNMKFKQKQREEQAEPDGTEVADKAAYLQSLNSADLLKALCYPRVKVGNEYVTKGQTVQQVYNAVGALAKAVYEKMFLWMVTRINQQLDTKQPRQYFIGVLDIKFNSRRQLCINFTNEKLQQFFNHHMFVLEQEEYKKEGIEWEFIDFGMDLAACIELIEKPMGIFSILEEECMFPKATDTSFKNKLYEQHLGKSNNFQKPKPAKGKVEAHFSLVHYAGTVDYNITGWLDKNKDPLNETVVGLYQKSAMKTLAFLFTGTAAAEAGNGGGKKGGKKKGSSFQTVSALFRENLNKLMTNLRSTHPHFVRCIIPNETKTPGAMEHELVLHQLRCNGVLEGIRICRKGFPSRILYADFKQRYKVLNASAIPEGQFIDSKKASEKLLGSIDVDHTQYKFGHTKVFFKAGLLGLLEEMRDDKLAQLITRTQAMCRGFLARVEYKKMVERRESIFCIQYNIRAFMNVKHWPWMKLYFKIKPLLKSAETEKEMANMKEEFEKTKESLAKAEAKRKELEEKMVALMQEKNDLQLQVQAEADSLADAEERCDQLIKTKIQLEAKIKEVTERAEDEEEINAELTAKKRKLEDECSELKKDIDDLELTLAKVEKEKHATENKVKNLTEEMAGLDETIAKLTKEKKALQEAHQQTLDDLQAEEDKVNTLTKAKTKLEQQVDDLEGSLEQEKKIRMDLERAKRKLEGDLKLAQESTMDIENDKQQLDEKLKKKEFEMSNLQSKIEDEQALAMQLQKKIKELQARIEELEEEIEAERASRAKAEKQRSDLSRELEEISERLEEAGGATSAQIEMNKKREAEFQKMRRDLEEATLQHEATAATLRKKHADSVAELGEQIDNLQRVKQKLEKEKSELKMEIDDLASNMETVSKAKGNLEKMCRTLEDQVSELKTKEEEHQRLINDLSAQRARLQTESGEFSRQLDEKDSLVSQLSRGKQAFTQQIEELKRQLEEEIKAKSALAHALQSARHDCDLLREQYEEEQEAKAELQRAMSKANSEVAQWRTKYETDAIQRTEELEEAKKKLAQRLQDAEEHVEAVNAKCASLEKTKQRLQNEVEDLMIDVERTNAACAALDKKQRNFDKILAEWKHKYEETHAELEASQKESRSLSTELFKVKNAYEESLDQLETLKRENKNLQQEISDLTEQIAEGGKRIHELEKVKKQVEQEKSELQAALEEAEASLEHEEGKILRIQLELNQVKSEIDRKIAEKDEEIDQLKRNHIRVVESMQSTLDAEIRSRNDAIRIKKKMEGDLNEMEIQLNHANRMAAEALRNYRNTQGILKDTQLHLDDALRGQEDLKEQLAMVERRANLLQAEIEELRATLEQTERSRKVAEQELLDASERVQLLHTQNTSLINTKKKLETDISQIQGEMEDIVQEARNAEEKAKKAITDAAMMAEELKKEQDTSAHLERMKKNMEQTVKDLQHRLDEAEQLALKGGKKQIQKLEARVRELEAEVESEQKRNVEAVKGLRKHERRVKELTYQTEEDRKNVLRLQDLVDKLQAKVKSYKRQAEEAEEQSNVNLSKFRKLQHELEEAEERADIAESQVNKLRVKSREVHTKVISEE
T1 sequence (Q9BE39 1-782): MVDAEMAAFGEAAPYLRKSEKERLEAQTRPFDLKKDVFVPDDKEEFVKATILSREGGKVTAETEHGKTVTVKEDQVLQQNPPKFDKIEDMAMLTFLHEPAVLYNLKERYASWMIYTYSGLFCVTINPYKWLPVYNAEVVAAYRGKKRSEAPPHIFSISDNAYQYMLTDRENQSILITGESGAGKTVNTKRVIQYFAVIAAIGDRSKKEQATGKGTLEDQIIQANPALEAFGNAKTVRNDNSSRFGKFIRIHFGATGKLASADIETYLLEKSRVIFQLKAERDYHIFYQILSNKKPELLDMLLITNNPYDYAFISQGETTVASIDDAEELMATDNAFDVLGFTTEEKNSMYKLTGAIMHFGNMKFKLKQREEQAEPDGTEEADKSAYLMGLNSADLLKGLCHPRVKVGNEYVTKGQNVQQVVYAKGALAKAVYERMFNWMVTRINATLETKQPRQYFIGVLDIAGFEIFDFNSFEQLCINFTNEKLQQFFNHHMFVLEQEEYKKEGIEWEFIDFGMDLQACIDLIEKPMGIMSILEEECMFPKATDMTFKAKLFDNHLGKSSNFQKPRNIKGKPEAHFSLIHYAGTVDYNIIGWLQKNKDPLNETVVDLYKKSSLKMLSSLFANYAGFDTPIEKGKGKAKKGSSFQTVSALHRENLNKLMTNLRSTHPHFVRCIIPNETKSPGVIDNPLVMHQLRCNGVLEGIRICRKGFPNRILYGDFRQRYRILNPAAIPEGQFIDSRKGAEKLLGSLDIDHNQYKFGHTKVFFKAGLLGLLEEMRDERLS

In the case of `Nc1ncnc2c1ncn2[C@@H]1O[C@H](COP(=O)(O)OP(=O)(O)O)[C@@H](O)[C@H]1O` [ADP], the “co-crystal structure at 2.33 Å with aficamten and vanadate” value at β-cardiac myosin (β-MHC) is “the upper inset displays ADP and Vanadate and the lower inset displays aficamten”.
In assay [1], `CCc1nc(-c2ccc3c(c2)CC[C@H]3NC(=O)c2cnn(C)c2)no1` [aficamten] gave an IC50 of 6.52 µM.

What is called IC50 is the point on the concentration scale where inhibition reaches its midpoint. Lower therefore signals inhibition by little substance.
